From ChEMBL document CHEMBL3576820, “Discovery of benzimidazole oxazolidinediones as novel and selective nonsteroidal mineralocorticoid receptor antagonists” (ACS Med Chem Lett, 2015)
Calls of active or inactive are those of the source. The rule behind the calls is not given here.

Assays:
[1] = Plasma protein binding in rat; type: ADME, cell-free; conditions: read-out: PPB
[2] = tested on: Rattus norvegicus; assay: Natriuretic activity in po dosed WKY rat measured over 6 hrs; type: functional, organism-based
[3] = Metabolic stability in rat liver microsomes assessed as compound remaining at 1 uM after 0.5 hrs; type: ADME; conditions: read-out: Stability
[4] = species: Homo sapiens; assay: Selectivity ratio of IC50 for human estrogen receptor alpha to IC50 for human mineralocorticoid receptor
[5] = Plasma protein binding in human; type: ADME, cell-free; conditions: read-out: PPB
[6] = target: T1, Androgen receptor (Homo sapiens, UniProt P10275); assay: Antagonist activity at human androgen receptor expressed in CHOK1 cells assessed as inhibition of D(-)-norgestrel-induced protein interaction with steroid receptor co-activator peptide after 24 hrs by beta-galactosidase reporter gene assay; type: cell-based, CHO-K1
T1 sequence (P10275 whole entry): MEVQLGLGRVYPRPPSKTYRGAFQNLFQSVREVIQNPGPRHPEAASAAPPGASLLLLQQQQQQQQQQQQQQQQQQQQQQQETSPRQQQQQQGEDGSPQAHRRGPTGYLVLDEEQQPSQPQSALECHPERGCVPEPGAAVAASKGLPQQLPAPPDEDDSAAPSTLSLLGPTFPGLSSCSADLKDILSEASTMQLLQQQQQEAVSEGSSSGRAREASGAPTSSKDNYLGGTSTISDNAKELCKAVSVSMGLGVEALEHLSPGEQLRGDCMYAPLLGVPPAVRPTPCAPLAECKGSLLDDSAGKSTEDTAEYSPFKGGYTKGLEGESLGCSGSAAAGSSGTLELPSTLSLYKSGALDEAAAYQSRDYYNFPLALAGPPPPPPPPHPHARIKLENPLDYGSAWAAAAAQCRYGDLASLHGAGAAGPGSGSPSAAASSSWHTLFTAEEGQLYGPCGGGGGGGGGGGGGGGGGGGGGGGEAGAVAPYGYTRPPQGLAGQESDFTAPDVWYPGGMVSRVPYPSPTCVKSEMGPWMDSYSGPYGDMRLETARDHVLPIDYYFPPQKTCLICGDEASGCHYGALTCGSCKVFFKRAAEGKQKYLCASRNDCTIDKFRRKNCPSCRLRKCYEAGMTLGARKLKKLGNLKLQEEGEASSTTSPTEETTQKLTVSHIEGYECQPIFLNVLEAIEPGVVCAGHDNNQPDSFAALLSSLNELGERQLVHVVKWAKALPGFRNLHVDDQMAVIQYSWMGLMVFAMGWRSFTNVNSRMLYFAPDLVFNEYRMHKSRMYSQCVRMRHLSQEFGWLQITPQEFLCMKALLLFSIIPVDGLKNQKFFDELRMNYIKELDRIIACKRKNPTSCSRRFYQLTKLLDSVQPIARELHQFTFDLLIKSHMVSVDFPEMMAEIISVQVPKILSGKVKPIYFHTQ

[7] = species: Homo sapiens; assay: Selectivity ratio of IC50 for human glucocorticoid receptor to IC50 for human mineralocorticoid receptor
[8] = species: Homo sapiens; assay: Selectivity ratio of IC50 for human estrogen receptor beta to IC50 for human mineralocorticoid receptor
[9] = species: Homo sapiens; assay: Selectivity ratio of IC50 for human androgen receptor to IC50 for human mineralocorticoid receptor
[10] = species: Homo sapiens; assay: Selectivity ratio of IC50 for human progesterone receptor beta to IC50 for human mineralocorticoid receptor
[11] = target: T2, Mineralocorticoid receptor (Homo sapiens, UniProt P08235); assay: Binding affinity to mineralocorticoid receptor (unknown origin)
T2 sequence (P08235 whole entry): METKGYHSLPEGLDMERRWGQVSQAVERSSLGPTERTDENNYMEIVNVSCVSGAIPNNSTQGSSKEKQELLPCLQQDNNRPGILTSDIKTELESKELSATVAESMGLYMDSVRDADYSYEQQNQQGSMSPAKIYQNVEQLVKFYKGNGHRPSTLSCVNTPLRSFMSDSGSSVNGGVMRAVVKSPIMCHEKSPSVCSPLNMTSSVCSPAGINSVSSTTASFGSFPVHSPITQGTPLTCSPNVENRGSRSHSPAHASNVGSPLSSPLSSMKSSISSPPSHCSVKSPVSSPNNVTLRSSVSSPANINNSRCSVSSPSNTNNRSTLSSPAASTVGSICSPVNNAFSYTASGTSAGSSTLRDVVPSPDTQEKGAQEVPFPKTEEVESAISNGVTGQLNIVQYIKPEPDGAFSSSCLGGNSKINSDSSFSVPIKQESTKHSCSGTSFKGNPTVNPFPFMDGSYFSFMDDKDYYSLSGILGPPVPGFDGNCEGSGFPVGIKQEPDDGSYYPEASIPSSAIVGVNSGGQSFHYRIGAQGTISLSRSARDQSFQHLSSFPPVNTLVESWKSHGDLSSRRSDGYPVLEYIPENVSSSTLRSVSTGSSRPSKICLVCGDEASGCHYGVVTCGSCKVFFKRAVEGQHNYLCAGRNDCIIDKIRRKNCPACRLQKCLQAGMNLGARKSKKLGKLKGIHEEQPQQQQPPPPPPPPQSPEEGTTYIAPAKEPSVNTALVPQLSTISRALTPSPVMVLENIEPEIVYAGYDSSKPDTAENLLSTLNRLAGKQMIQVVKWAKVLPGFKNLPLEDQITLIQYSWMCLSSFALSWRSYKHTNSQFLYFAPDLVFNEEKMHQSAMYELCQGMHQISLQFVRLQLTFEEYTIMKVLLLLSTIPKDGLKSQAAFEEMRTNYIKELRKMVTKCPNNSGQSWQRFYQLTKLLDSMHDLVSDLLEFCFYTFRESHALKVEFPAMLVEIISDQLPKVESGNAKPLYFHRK

Row | Compound | fraction unbound [1] | remaining at 0.5 h, 1 µM [3] [%] | Ratio IC50 [4] | fraction unbound [5] | IC50 [6] [µM] | Ratio IC50 [7] | Ratio IC50 [8] | Ratio IC50 [9] | Ratio IC50 [10] | Ki [11] [µM] | Activity [2]
1 | C[C@H](c1ccc(F)cc1)N1C(=O)O[C@](Cc2ccccc2)(c2nc3cc(-c4cccnc4)ccc3[nH]2)C1=O | < 0.01 | 45 | > 40 | < 0.01 | 3.7 | > 40 | > 40 | 110 | > 40 |  | Active
2 | C[C@H](c1ccc(F)cc1)N1C(=O)O[C@](Cc2ccccc2)(c2nc3cc(Cl)ccc3[nH]2)C1=O | < 0.01 | 14 |  | < 0.01 | 3.1 |  |  |  |  | 0.002 | Active
3 | C[C@H](c1ccc(F)cc1)N1C(=O)O[C@](Cc2ccccc2)(c2nc3c(NS(C)(=O)=O)cccc3[nH]2)C1=O |  | 44 |  |  | 11 |  |  |  |  |  | 
4 | C[C@H](c1ccc(F)cc1)N1C(=O)O[C@](Cc2ccccc2)(c2nc3cc(C(F)(F)F)ccc3[nH]2)C1=O | < 0.01 | 41 |  | < 0.01 | 3 |  |  |  |  |  | 

Continued, in another order:

Row | fraction unbound [1] | remaining at 0.5 h, 1 µM [3] [%] | Ratio IC50 [4] | fraction unbound [5] | IC50 [6] [µM] | Ratio IC50 [7] | Ratio IC50 [8] | Ratio IC50 [9] | Ratio IC50 [10] | Ki [11] [µM] | Compound | Activity [2]
5 |  | 54 | > 40 |  | 3.4 | > 40 | > 40 | 90 | > 40 |  | Cc1nocc1-c1ccc2[nH]c([C@@]3(Cc4ccccc4)OC(=O)N([C@H](C)c4ccc(F)cc4)C3=O)nc2c1 | 
6 |  | 92 | > 40 |  | 7.7 | > 40 | > 40 | > 40 | > 40 |  | C[C@H](c1ccc(F)cc1)N1C(=O)O[C@](Cc2ccccc2)(c2nc3cc(N4CCOCC4)ccc3[nH]2)C1=O | Dose-dependent effect
7 |  | 80 |  |  | 13 |  |  |  |  |  | C[C@H](c1ccc(F)cc1)N1C(=O)O[C@](Cc2ccccc2)(c2nc3cc(NS(C)(=O)=O)ccc3[nH]2)C1=O | Active
8 |  | 62 |  |  | 3.1 |  |  |  |  |  | C[C@H](c1ccc(F)cc1)N1C(=O)O[C@](Cc2ccccc2)(c2nc3cc(-c4cc[nH]n4)ccc3[nH]2)C1=O | 
